Assay results reported in publication PMC8929047, “Synthetic Oligopeptides Mimicking γ-Core Regions of Cysteine-Rich Peptides of Solanum lycopersicum Possess Antimicrobial Activity against Human and Plant Pathogens” (Current Issues in Molecular Biology, 2021).
Peptide text beside a SMILES is read from it.

Columns and labels:
[1] = test system: F. oxysporum VKM F-137; assay type: cell-based; settings: Fusarium oxysporum; 38 h incubation, absorbance 595 nm; max tested 150 μM; mean ± SD, three replicates
Procedure: (§1) To study the effect of peptides on spore germination and growth of plant pathogenic fungi, fungal strains from the VKM collection were used: Fusarium culmorum VKM F-2303, F. oxysporum VKM F-137, F. solani VKM F-142, F. verticillioides VKM F-670, Bipolaris sorokiniana VKM F-4006, and Botrytis cinerea VKM F-4549. The fungi were grown on potato dextrose agar at 25 °C for 7–8 days, or for B. sorokiniana and B. cinerea, for 10–12 days. Spores were washed off from the surface of the mycelia with sterile distilled water and filtered through a sterile filter. The filtrate was centrifuged at 6000 rpm for 15 min. The precipitate was washed three times with sterile distilled water, transferred to Eppendorf tubes, and centrifuged at 10,000 rpm for 2 min. 1 mL of sterile aqueous 20% glycerol solution was added to the spores, and the tubes with spores were stored in a freezer at −20 °C.
(§2) Similar to antimicrobial assays with yeasts and bacteria, the effect of peptides on spore germination and fungal growth was studied by measuring the absorbance of the spore suspension in the presence of the peptide in microtiter plates. The wells of a plate were filled with 90 µL of spore suspension in half-strength potato dextrose broth at a concentration of 2000–3000 spores in 100 µL and 10 µL of aqueous solutions of peptides at final concentrations of 10–300 µM. The concentration of spores in the suspension was determined in the Goryaev chamber. The absorbance was recorded at 595 nm on a FilterMax F5 Multi-Mode Microplate Reader (Molecular Devices, San Jose, CA, USA) after 38 h of incubation, for B. sorokiniana and B. cinerea, after 14, 19, 24, 38, 43, 62 h.
(§3) Antimicrobial activity was expressed in IC50 values, which denote the concentration required for 50% inhibition of the pathogen growth; this was determined from a graph showing the dependence of antimicrobial activity on peptide concentration.
(§4) For each pathogen, experiments on the evaluation of antimicrobial activity of the synthetic peptides were performed with three replicates per treatment. Mean values, standard deviations (SD), and the significance of differences (p ≤ 0.05) of the means between treatments and controls (t-test for independent variables) were determined using STATISTICA v. 6.1 software (StatSoft Inc., Tulsa, OK, USA).

[2] = test system: Fusarium culmorum VKM F-2303; assay: Spore germination and fungal growth inhibition (absorbance); assay type: cell-based; settings: for IC50: Fusarium culmorum, 38 h incubation, absorbance 595 nm, max tested 150 μM, mean ± SD, three replicates; for Inhibition of F. culmorum growth: 38 h
Procedure: as §1, §2, §3, §4

[3] = test system: Clavibacter michiganensis subsp. michiganensis VKM Ac-1403; assay type: cell-based; settings: for IC50: Clavibacter michiganensis, 24 h incubation, 30 °C, absorbance 594 nm, max tested 100 μM, mean ± SD, three replicates
Procedure: (§5) The antimicrobial activity of synthetic peptides was tested against the yeasts Cryptococcus neoformans VKM Y-2755 and Candida albicans VKM Y-2994, as well as against the bacteria Pectobacterium carotovorum subsp. carotovorum VKM B-1247, Pseudomonas savastanoi pv. savastanoi VKM B-1546 and Clavibacter michiganensis subsp. michiganensis VKM Ac-1403. All cultures were obtained from the All-Russian Collection of Microorganisms (VKM). Yeasts were grown on YPD-P medium containing (g/L): glucose–10, peptone–5 and yeast extract–4. Bacterial cultures were grown on medium containing (g/L): yeast extract–1, soya extract–30, aminopeptides (a solution of low-molecular weight peptides and all essential amino acids obtained from the blood of cattle by enzymatic hydrolysis)–60, tryptone–5 and pH 7.2. The microbial cultures were grown on a shaker at 30 °C for 24 h. The optical density of the cultures was measured on a UNICO 1201 (Unico, Dayton, NJ, USA) spectrophotometer at 594 nm. Yeast cultures were diluted 1:10 with water before analysis. […] The antibiotic activity of peptides against yeasts and bacteria was assayed in immunoassay microtiter plates. 10 µL of the tested peptide solution (final concentrations of 10–300 µM) in water, 80 µL of the medium and 10 µL of the microbial suspension were mixed in a well of the microtiter plate and incubated at 30 °C for 24 h; after that, the absorbance of the suspension was measured on an Efos 9305 spectrophotometer (Sapphire, Moscow, Russia) at 594 nm.
as §3, §4

[4] = test system: F. solani VKM F-142; assay type: cell-based, Fusarium solani; settings: for IC50: Fusarium solani, 38 h incubation, absorbance 595 nm, max tested 150 μM, mean ± SD, three replicates
Procedure: as §1
as §2, with “h. […]” for “h.”
(§6) For each pathogen, experiments on the evaluation of antimicrobial activity of the synthetic peptides were performed with three replicates per treatment. Mean values, standard deviations (SD), and the significance of differences (p ≤ 0.05) of the means between treatments and controls (t-test for independent variables) were determined using STATISTICA v. […]

[5] = test system: Cryptococcus neoformans VKM Y-2755; settings: for IC50: Cryptococcus neoformans, 24 h incubation, 30 °C, absorbance 594 nm, max tested 100 μM, mean ± SD, three replicates; for Inhibition of C. neoformans growth: peptide 300 μM, 24 h, relative to control
Procedure: as §5, §3
For each pathogen, experiments on the evaluation of antimicrobial activity of the synthetic peptides were performed with three replicates per treatment. Mean values, standard deviations (SD), and the significance of differences (p ≤ 0.05) of the means between treatments and controls (t-test for independent variables) were determined using […] v. 6.1 software (StatSoft Inc., Tulsa, OK, USA).

[6] = test system: F. verticillioides VKM F-670; assay type: cell-based, Fusarium verticillioides; settings: for IC50: Fusarium verticillioides, 38 h incubation, absorbance 595 nm, max tested 180 μM, mean ± SD, three replicates
Procedure: as §1
as §2, with “h. […]” for “h.”
as §6

[7] = test system: Botrytis cinerea VKM F-4549; assay type: cell-based; settings: for Inhibition of B. cinerea growth: peptide 300 μM, relative to control; for B. cinerea growth dynamics in the presence of peptide: peptide 60 μM, absorbance after 14-62 h, control H2O
Procedure: as §1, §2, §3, §4

[8] = test system: Pectobacterium carotovorum subsp. carotovorum VKM B-1247; assay: Growth inhibition of bacteria in microtiter plates (absorbance); assay type: cell-based; settings: peptide 300 μM, 24 h, relative to control
Procedure: The antimicrobial activity of synthetic peptides was tested against the yeasts Cryptococcus neoformans VKM Y-2755 and Candida albicans VKM Y-2994, as well as against the bacteria Pectobacterium carotovorum subsp. carotovorum VKM B-1247, Pseudomonas savastanoi pv. savastanoi VKM B-1546 and Clavibacter michiganensis subsp. michiganensis VKM Ac-1403. All cultures were obtained from the All-Russian Collection of Microorganisms (VKM). Yeasts were grown on YPD-P medium containing (g/L): glucose–10, peptone–5 and yeast extract–4. […] The optical density of the cultures was measured on a UNICO 1201 (Unico, Dayton, NJ, USA) spectrophotometer at 594 nm. […] 10 µL of the tested peptide solution (final concentrations of 10–300 µM) in water, 80 µL of the medium and 10 µL of the microbial suspension were mixed in a well of the microtiter plate and incubated at 30 °C for 24 h; after that, the absorbance of the suspension was measured on an Efos 9305 spectrophotometer (Sapphire, Moscow, Russia) at 594 nm. […]
as §6

[9] = test system: Fusarium species; assay: Spore germination and fungal growth inhibition, statement for all tested Fusarium species; assay type: cell-based; settings: peptide 300 μM, relative to control
Procedure: as §1
as §2, with “h. […]” for “h.”
as §6

[10] = test system: Bipolaris sorokiniana VKM F-4006; assay: Spore germination and fungal growth inhibition (absorbance); assay type: cell-based; settings: for Inhibition of B. sorokiniana growth: peptide 300 μM, relative to control
Procedure: as §1, §2, §3, §4

Compound	IC50 [1]	IC50 [2]	IC50 [3]	IC50 [5]	Inhibition of B. cinerea growth [7]	Suppression of Fusarium species [9]	other results
CC(C)C[C@H](NC(=O)[C@H](CC(N)=O)NC(=O)[C@H](CCC(N)=O)NC(=O)[C@H](CCCNC(=N)N)NC(=O)[C@H](CO)NC(=O)[C@H](CO)NC(=O)[C@H](CCCCN)NC(=O)[C@H](CO)NC(=O)[C@H](CS)NC(=O)[C@H](CCCNC(=N)N)NC(=O)[C@@H](NC(=O)[C@H](CCCCN)NC(=O)[C@H](CS)NC(=O)[C@H](CO)NC(=O)CN)[C@@H](C)O)C(=O)N[C@@H](CS)C(=O)N[C@@H](CC(N)=O)C(=O)N[C@@H](CCCNC(=N)N)C(=O)O [γ47-64SlSN10] (H-GSCKTRCSKSSRQNLCNR-OH)	43.8 ± 6.8 µM	127 ± 8.5 µM					
CC(C)C[C@H](NC(=O)[C@H](CCCNC(=N)N)NC(=O)[C@H](CS)NC(=O)[C@H](CCCNC(=N)N)NC(=O)[C@H](C)NC(=O)[C@H](C)NC(=O)[C@H](CS)NC(=O)[C@H](C)NC(=O)CN)C(=O)N[C@@H](CO)C(=O)N[C@@H](CO)C(=O)N[C@@H](CCCNC(=N)N)C(=O)N1CCC[C@H]1C(=O)N[C@@H](CCCNC(=N)N)C(=O)N[C@@H](CC(C)C)C(=O)N[C@@H](CS)C(=O)N[C@@H](Cc1c[nH]cn1)C(=O)N[C@@H](CCCNC(=N)N)C(=O)O [γ48-65SlSN2] (H-GACAARCRLSSRPRLCHR-OH)	57.1 ± 11.6 µM	42.1 ± 6.5 µM	23.1 ± 2.7 µM	4.2 ± 0.6 µM			IC50 [4]: 47.5 ± 2 µM; Maximum inhibition of F. solani ([4]; peptide 150 μM, 38 h): 69%; Inhibition of F. culmorum growth ([2]; peptide 75 μM): 79%; IC50 [6]: 152 ± 7.7 µM
C[C@@H](O)[C@H](NC(=O)[C@H](CS)NC(=O)[C@H](Cc1ccccc1)NC(=O)[C@H](CS)NC(=O)[C@H](CCCNC(=N)N)NC(=O)[C@H](CCCNC(=N)N)NC(=O)[C@H](CCCNC(=N)N)NC(=O)[C@H](Cc1ccccc1)NC(=O)CNC(=O)[C@H](CCCNC(=N)N)NC(=O)[C@H](CS)NC(=O)[C@H](CC(=O)O)NC(=O)CNC(=O)CNC(=O)[C@H](CO)NC(=O)[C@@H](N)Cc1ccccc1)C(=O)N[C@@H](CCCNC(=N)N)C(=O)O [γ58-74SlDEFL2] (H-FSGGDCRGFRRRCFCTR-OH)		44.8 ± 4 µM	19.8 ± 2.5 µM	11.5 ± 2.5 µM	31–45%		Inhibition of P. carotovorum growth [8]: 48%; Inhibition of C. neoformans growth [5]: 90%
C[C@@H](O)[C@H](NC(=O)[C@H](CS)NC(=O)[C@H](Cc1ccccc1)NC(=O)[C@H](CS)NC(=O)[C@H](CCCNC(=N)N)NC(=O)[C@H](CCCNC(=N)N)NC(=O)[C@H](CCCNC(=N)N)NC(=O)[C@H](Cc1ccccc1)NC(=O)CNC(=O)[C@H](CCCNC(=N)N)NC(=O)[C@H](CS)NC(=O)[C@H](CC(N)=O)NC(=O)CNC(=O)CNC(=O)[C@@H](NC(=O)[C@@H](N)Cc1ccccc1)[C@@H](C)O)C(=O)N[C@@H](CCCNC(=N)N)C(=O)O [γ58-74SlDEFL4] (H-FTGGNCRGFRRRCFCTR-OH)	125 ± 3.7 µM	42.3 ± 5.7 µM	21.5 ± 5.1 µM	8.1 ± 2.4 µM	31–45%		
CC[C@H](C)[C@H](NC(=O)[C@H](CCC(=O)O)NC(=O)[C@@H]1CCCN1C(=O)[C@H](CS)NC(=O)[C@H](CS)NC(=O)CNC(=O)[C@@H](N)CCCCN)C(=O)N[C@@H](C)C(=O)NCC(=O)N[C@@H](CC(C)C)C(=O)N[C@@H](CC(C)C)C(=O)N[C@@H](CC(=O)O)C(=O)N[C@@H](CO)C(=O)N[C@@H](CC(N)=O)C(=O)N1CCC[C@H]1C(=O)N[C@H](C(=O)N[C@@H](CS)C(=O)O)[C@@H](C)CC [γ70-86SlLTPg2.8] (H-KGCCPEIAGLLDSNPIC-OH; N-terminus and C-terminus assumed)							B. cinerea growth dynamics in the presence of peptide [7]: insensitive
CC(C)C[C@H](NC(=O)CN)C(=O)N[C@@H](CS)C(=O)N[C@@H](CCCCN)C(=O)N[C@@H](Cc1ccc(O)cc1)C(=O)N[C@@H](CCCNC(=N)N)C(=O)N[C@@H](CS)C(=O)N[C@@H](CO)C(=O)N[C@@H](CC(C)C)C(=O)N[C@@H](Cc1c[nH]cn1)C(=O)N[C@@H](CO)C(=O)N[C@@H](CCCNC(=N)N)C(=O)N1CCC[C@H]1C(=O)N[C@@H](CC(N)=O)C(=O)N[C@H](C(=O)N[C@@H](CS)C(=O)N[C@@H](Cc1ccccc1)C(=O)N[C@@H](CCCNC(=N)N)C(=O)O)C(C)C [γ89-106SlSN9] (H-GLCKYRCSLHSRPNVCFR-OH)		42.4 ± 3.5 µM	24 ± 2.4 µM	5.1 ± 1.2 µM			IC50 [4]: 139 ± 6.1 µM; Inhibition of F. culmorum growth ([2]; peptide 50 μM): 72%; IC50 [6]: 99.8 ± 10 µM; Maximum inhibition of F. verticillioides ([6]; peptide 180 μM, 38 h): 62%
C[C@@H](O)[C@H](NC(=O)[C@H](CCCCN)NC(=O)[C@@H]1CCCN1C(=O)[C@@H](NC(=O)[C@H](Cc1ccccc1)NC(=O)[C@H](CO)NC(=O)[C@H](CS)NC(=O)[C@H](Cc1ccc(O)cc1)NC(=O)CNC(=O)[C@H](Cc1ccccc1)NC(=O)[C@@H]1CCCN1C(=O)[C@@H](N)CCCNC(=N)N)[C@@H](C)O)C(=O)N[C@@H](CS)C(=O)O [γ92-104SlMEG2] (H-RPFGYCSFTPKTC-OH; N-terminus and C-terminus assumed)					36–40%	insensitive	Inhibition of C. michiganensis growth ([3]; peptide 300 μM, 24 h, relative to control): with high efficiency; B. cinerea growth dynamics in the presence of peptide [7]: insensitive; B. sorokiniana growth dynamics in the presence of peptide ([10]; peptide 60 μM, effect observed after 38 h of spore incubation, control H2O): significant growth suppression; Inhibition of C. neoformans growth [5]: with high efficiency
SGCCTQLGTVVKNNPEC [γ56-72SlLTPg2.4, synthetic 17-residue peptide corresponding to the γ-core region of tomato nsLTP SlLTPg2.4]					inactive	inactive	Inhibition of B. sorokiniana growth [10]: inactive
SGCCTQLSTVVDEKSEC [γ53-69SlLTPg2.5, synthetic 17-residue peptide corresponding to the γ-core region of tomato nsLTP SlLTPg2.5]					inactive	inactive	Inhibition of B. sorokiniana growth [10]: inactive
